Values joined by “and” are separate entries in the source; they are usually repeats but may differ in a detail not shown here. Equal values may be shown once. Read-outs that look alike come from different tables or passages of the source.
Columns and labels:
[1] = DOX concentration in blood, tumor and peritumoral brain tissue of GBM patients (LC/MS); type: in vivo, human; settings: for concentration at 48 h: human, intravenous, GBM patients, 48 hours after liposomal DOX with US/MB
Protocol: Patients received additional treatment cycles with sonications in an outpatient setting in which the US device was activated by percutaneous access with a single-use transdermal needle concomitantly with the injection of 10 μL/kg of IV microbubbles (DEFINITY, Lantheus, Billerica, USA) and 200 mg of pembrolizumab and 30 mg of liposomal DOX.
Determination of the DOX concentration in blood, tumor and peritumoral brain tissue. Two GBM patients undergoing surgery for resection of tumor with implantation of the Sonocloud-9 US device were studied for this analysis. […] Sonicated and non-sonicated peritumoral brain samples were identified taking into account their location relative to the sonication field of the US device. Non-sonicated peritumoral brain samples were acquired first with the use of a new set of surgical instruments for each sample. Every peritumoral brain tissue was washed with saline solution to remove blood. These samples were sectioned into 30 mg pieces and were flash-frozen for further quantification of DOX levels. DOX was quantified in tumor, peritumoral, and plasma using LC/MS (6500 QTRAP AB Sciex equipped with a SIL-20AC XR HPLC, Shimadzu Scientific Instruments).

GBM63 = assay: Flow cytometry of antigen-presenting molecules in PDX cell line GBM63; type: cell-based, human; settings: 5 hours exposure, 72 hours drug-free
Protocol: Flow cytometry of PDX cell lines and HMC3 cells. PDX cell lines were kindly gifted. HMC3 cells were acquired from ATCC. GBM6, GBM63 and HMC3 cells were seeded on 6-well plates for treatment with increasing concentrations of DOX hydrochloride (D1515, Sigma Aldrich), IFN-γ (300-02, Peprotech) or 50 μM of TMZ (Accord). PDX and HMC3 cells were treated for 5 hours followed by 3 washes with PBS and cultured afterwards with Dulbecco's modified Eagle's medium (Corning) supplemented with 10% FBS (Hyclone) and 1% penicillin/streptomycin (Corning). 72 hours after treatment, PDX cells were harvested using Accutase cell detachment solution (Corning) and were stained initially with eBioscience Fixable Viability Dye eFluor 780 (Thermo Fisher) at 1:1000 dilution. Staining with HLA ABC AF-647 (311414) and HLA-DR BV421 (307636) was done for PDX cells. IFN-γ AF-700 (502520), HLA ABC FITC (311404), PD-L1 Pe-Cy7 (374506). All antibodies for this experiment were from Biolegend. Data was acquired using BD FACSymphony Flow Cytometer.

CT2A = assay: H-2Kb expression in CT2A cells by flow cytometry; type: cell-based, mouse; settings: similar DOX concentration range, compared to no treatment
recurrent GBM patients = assay: Multiplex immunofluorescence of pre-treatment and on-treatment human GBM samples; settings: tumors exposed to DOX vs before DOX

## COc1cccc2c1C(=O)c1c(O)c3c(c(O)c1C2=O)C[C@@](O)(C(=O)CO)C[C@@H]3O[C@H]1C[C@H](N)[C@H](O)[C@H](C)O1 [DOX, Doxorubicin]
[1]; 2 GBM patients, 48 hours, 95% CI of mean 1.406-2.659
  fold increase in DOX concentration, sonicated relative to non-sonicated peritumoral brain samples: 2.033 fold
[1]; plasma, read-out: DOX plasma levels
  concentration at 48 h: 8230 ng/mL and 14.2 µM
[1]; tumor, read-out: DOX tumor concentrations
  concentration at 48 h: 146 ng/g to 2290 ng/g and 251 nM to 3.94 µM
GBM63
  DOX concentration range that upregulated HLA ABC and HLA-DR expression: 0.15 to 0.6 M
CT2A
  H-2Kb expression: upregulated
Recurrent GBM patients; P=0.0092
  TMEM119+ cells expressing HLA I: increased number
Recurrent GBM patients; P=0.0712
  CD163+ cells expressing HLA I: increased number

Reference: patent US20260124223A1, “CANCER IMMUNOTHERAPIES” (Northwestern University, priority 2022, published 2026)
